Measurements: article PMC10269622, “Blapstin, a Diapause-Specific Peptide-Like Peptide from the Chinese Medicinal Beetle Blaps rhynchopetera, Has Antifungal Function” (Microbiology Spectrum, 2023)
Bridge positions count the residues as written; N and C are the ends. Ends that are not written are not given here.

Columns and labels:
[1] = test system: C. albicans ATCC 10231; test: Intracellular ROS burst, H2DCFDA probe; format: cell-based, Candida albicans; conditions: 1×, 8×, 32× MIC, 37°C, 30 min
Procedure: H2DCFDA is a cell-permeable probe for detecting intracellular ROS ([72]). C. albicans ATCC 10231 was cultured in YM medium to logarithmic stage in a constant-temperature shaking machine at 37°C, centrifuged at 1,000 × g for 5 min to remove the supernatant, and washed with normal saline three times, and then the fungal solution was diluted to an OD600 of 0.1. Different concentrations of blapstin (1× MIC, 8× MIC, 32× MIC) were added to diluted fungal suspension and incubated at 37°C for 30 min. H2O2 at 0.1 mM was used as the positive control, and 0.9% NaCl was used as the negative control. After incubation, the suspension was centrifuged at 1,000 × g for 5 min to discard the supernatant and leave the thallus precipitation. The H2DCFDA dye was dissolved with DMSO and diluted with 0.9% NaCl containing 15% DMSO to achieve a final concentration of 10 μM. The thallus precipitation was mixed with 1 mL of a […] H2DCFDA working solution to each tube, incubated at 37°C for 30 min, and then centrifuged at 1,000 × g for 5 min to remove the supernatant. […] One milliliter of 0.9% NaCl was added to each tube and analyzed with a multifunctional fluorescent enzyme labeling instrument (SynergyH1; Biotek, USA). The excitation/emission wavelengths were set at […], and the ROS burst was monitored. The experiment was repeated three times, with three biological replicates at a time.

[2] = test system: Staphylococcus aureus ATCC 6538; test: MIC, broth double dilution; format: cell-based; conditions: 96-well plate, 37°C, 16 h, absorbance at 600 nm, mean of three independent experiments, ND = no bacteriostatic activity
Procedure: (§1) The standard strain of C. albicans (ATCC 10231), three clinically isolated antibiotic-resistant strains (C. albicans 0065, C. albicans 0063, and C. albicans 6), E. coli (ATCC 8739), and S. aureus (ATCC 6538) were obtained from Kunming Medical University. T. rubrum was purchased from BeNa Culture Collection (BNCC, CAS no. 340195). Different strains of C. albicans, E. coli, and S. aureus were cultured with shaking at 37°C in YM medium and Luria-Bertani (LB) medium. T. rubrum was cultured at 28°C in potato dextrose agar (PDA) medium according to the manufacturer’s instructions.
(§2) According to CLSI protocols, the MIC is determined as a point where there is “zero detectable growth,” The MIC of blapstin against different fungal strains was determined by use of the double dilution method, namely, broth dilution determination. In brief, the different strains were grown in their corresponding media at 28°C or 37°C until they reached the exponential growth phase. Colistin E and fluconazole were used as positive controls. Blapstin was diluted to various concentrations in sterile saline: 100 μL of sterile saline was added to the second well of a sterile 96-well plate, and then 100 μL of blapstin was added to the first and second wells. The solution from the second well was double-diluted with sterile saline until the 11th well, from which 100 μL was removed. In the 12th well, no blapstin was added, and sterile saline was used as a negative control. Afterward, 100 μL of the diluted microbial solution was added to each well, followed by incubation at 37°C for 16 h. To assess the antifungal activity of blapstin against the T. rubrum strain, the spore germination rates were first determined microscopically with a hemocytometer. T. rubrum was diluted with normal saline to 1 × 10^5 CFU/mL and then incubated with various concentrations of blapstin at 28°C for 16 h. The absorbance at 600 nm was measured by a microplate reader (Epoch Etock; Biotek, USA) to estimate the inhibition of bacteria and fungi by blapstin.

[3] = test system: Escherichia coli ATCC 8739; test: MIC, broth double dilution; format: cell-based; conditions: 96-well plate, 37°C, 16 h, absorbance at 600 nm, mean of three independent experiments, ND = no bacteriostatic activity
Procedure: as §1, §2

[4] = Stability in human plasma (residual antifungal activity, inhibition zone); format: in vitro ADME; conditions: 225 μM in 100% human plasma
Procedure: The stability of blapstin in human plasma was assessed using a previously described method ([67]). Blapstin (225 μM) was mixed with 100% human plasma and incubated at 37°C for 0, 2, 4, 6, 8, 10, 15, and 24 h, respectively. Then, the residual antifungal activity against C. albicans ATCC 10231 for each incubation period was evaluated using an inhibition zone assay. Nutrient YM solid medium was coated with C. albicans ATCC 10231, and then 10-μL aliquots of the plasma-peptide mixture were added to sterile, 5-mm-diameter filter paper disks placed on the medium. After 24 h of incubation, the diameter of the inhibition zone against C. albicans ATCC 10231 was measured in triplicate.

[5] = test system: C. albicans; test: pH stability of antifungal activity (paper disk assay); format: physicochemical, Candida albicans; conditions: 30 min at room temperature, then paper disk assay, 37°C, 18 h
Procedure: (ii) Effects of pH. In the test of pH stability of antifungal activity, 50 mg of blapstin was dissolved in 25 mL of solutions with different pH values (pH 3 to 5, 0.1 mol HCl; pH 7 to 9, 1 mmol NaOH), and the peptide solutions of different pH values were incubated at room temperature for 30 min ([63]). Colistin E was used as the positive control, and 1.5% NaCl was used as the negative control. Then, these samples were transferred to the paper disks in the YM solid medium with C. albicans and incubated at 37°C for 18 h for the assay of antifungal activity.

[6] = test system: established biofilms of C. albicans ATCC 10231; test: Biofilm eradication assay (crystal violet); format: cell-based, Candida albicans; conditions: 24 h preformed biofilm, 0.5× to 8× MIC, 37°C, absorbance at 600 nm
Procedure: First, 100 μL of C. albicans ATCC 10231 suspension (1 × 10^6 CFU/mL) was added to each well of a sterile 96-well plate. The plate was incubated at 37°C for 24 h to make the biofilm adhere to the walls and washed three times with PBS. Next, 100 μL of serial dilutions of blapstin (0.5×, 1×, 2×, 4×, and 8× MIC) prepared using YM medium was added to the plate, followed by incubation at 37°C for 24 h. Fluconazole at 10 μM and clotrimazole at 10 μΜ were used as a positive control, and sterile 0.9% NaCl was used as a negative control. After incubation, the liquid in the plate was discarded and washed three times with PBS, followed by the addition of 1% crystal violet solution to each well and incubation at room temperature for 10 min. Finally, the plate was washed three times with PBS, and 100 μL of 95% ethanol was added per well. The percentage of biofilm removal was estimated by measuring the absorbance at 600 nm.

Q: With “VRVGPCDQVCSRTNPEKDECCRAHGHSGHSSCYGGRMNCYG (disulfide 6-21, 10-32, 20-39 (inferred)) [Blapstin]” as the sequence, how does the “Change in ROS fluorescence in C. albicans” value [1] read?
A: increased

Q: And the MIC [2]?
A: did not affect

Q: What about the MIC [3] of the same sequence?
A: did not affect

Q: And the “Residual antifungal activity after incubation in human plasma” value ([4]; 37°C, 24 h, inhibition zone against C. albicans ATCC 10231, triplicate)?
A: did not completely disappear

Q: What about the “Stability in human plasma” value ([4]; 8 h at 37°C, inhibition zone against C. albicans ATCC 10231) of the same sequence?
A: high stability

Q: What about the “Antifungal activity after pH exposure” value ([5]; pH 3 and pH 5 (HCl)) of the same sequence?
A: full antifungal activity was retained

Q: And the “Antifungal activity after pH exposure” value ([5]; pH higher than 7 (NaOH, up to pH 9))?
A: reduced gradually

Q: What about the “Eradication of established biofilms of C. albicans” value [6] of the same sequence?
A: disrupted established biofilms
